The test concerns alternative complement pathway (AP). Description: Functional capacity of the alternative pathway on LPS-coated surface. Format: biochemical, human. The conditions noted are these: 10 mM EDTA present in the dilution buffer; data not shown. Here is the method: The protocol for the functional capacity of the AP was similar to the method for the CP assay, with the following modification: Lipopolysaccharide W S. typhimurium (10 ug/ml) (lot. 51974, DICO LABORAORIES, US) was coated in 1M NaCl and used as activating surface for AP activation. The serum samples were diluted in dilution buffer with 4 mM Mg^2+, 10 mM EGTA, and 0.05% Tween-20 and were incubated for 60 min at 37° C. The C3, properdin and C9 deposition was measured by adding 100 μl of mAbs.
The influence of PAS on complement activation via the AP was also analyzed. NHS and C2-deficient serum diluted in dilution buffer containing 4 mM Mg^2+ and 10 mM EGTA was incubated in microtiter-wells (PolySorp), coated with LPS as described above in the presence or absence of PAS and deposition of complement components (C3b/C3bi, properdin and C9) was detected.
Various concentrations of PAS were used in order to determine a dose-response curve for PAS. Experiments were performed as described above only with varying the amount of PAS added to the sample.

Data on one compound can be found in patent publication US8852869B2, “Method of determining functional deficiencies in the complement system” (Immunobond ApS, priority 2007, dated 2014).

Take `O=C(O)CN(CCN(CC(=O)O)CC(=O)O)CC(=O)O` [EDTA]: the “Deposition of C3, properdin and C9 (all three complement components)” value is recorded as “reduced to background levels”.
